Where “and” joins values, the source holds several entries; their conditions need not be identical. Identical values can stand only once. Like-named read-outs stand apart in the source and are kept apart here.
What was measured:
Mtb20SOG = Mtb20SOG (Mycobacterium tuberculosis, UniProt P9WHT9); assay: biochemical
[1] = biological target: Human Constitutive (Hu C-20S) β5 Active Subunit (Homo sapiens, UniProt P28074); assay: IC50 determination, human constitutive 20S proteasome β5c (suc-LLVY-AMC hydrolysis); type: biochemical; conditions: Table 2; several values in a cell are repeat determinations; read-out: Hu c-20S IC50
[2] = Table 2, several values in a cell are repeat determinations

Mtb20SOG, sequence (P9WHT9 58-291): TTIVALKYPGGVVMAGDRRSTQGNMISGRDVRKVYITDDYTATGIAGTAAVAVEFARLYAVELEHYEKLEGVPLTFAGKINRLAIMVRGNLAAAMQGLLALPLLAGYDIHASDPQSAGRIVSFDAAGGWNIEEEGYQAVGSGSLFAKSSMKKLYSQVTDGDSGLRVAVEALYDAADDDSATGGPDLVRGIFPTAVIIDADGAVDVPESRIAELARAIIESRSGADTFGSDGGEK

Compound	IC50 (Mtb20SOG)	IC50 [1]	IC50 (Mtb20SOG; [2])
Cc1cc(C(=O)N[C@@H](CC(=O)N2CCCC[C@@H]2C)C(=O)N[C@@H](C)c2ncc(-c3ccc(F)cc3F)[nH]2)no1 [CF-503111]	0.041 µM and 0.034 µM	7.2 µM and 5.48 µM	–
Cc1cc(C(=O)N[C@@H](CC(=O)N2CCC[C@@H]2c2ccccc2)C(=O)NC(C)c2nc3ccccc3[nH]2)no1 (stereo partly drawn) [CF-503127]	0.084 µM and 0.1 µM	7 µM	–
Cc1cc(C(=O)N[C@@H](CC(=O)N2CCCC[C@@H]2C)C(=O)N[C@@H](C)c2ncc(Cc3ccccc3)[nH]2)no1 [CF-503133]	–	5.59 µM and 7.08 µM	0.266 µM and 0.231 µM
Cc1cc(C(=O)N[C@@H](CC(=O)N2CCC[C@@H]2c2ccccc2)C(=O)N[C@@H](C)c2ncc(Cc3ccccc3)[nH]2)no1 [CF-503134]	0.09 µM and 0.057 µM	7.4 µM and 7.6 µM	–
C[C@H](NC(=O)[C@H](CC(=O)N1CCCC[C@@H]1C)NC(=O)CC1CCOCC1)c1ncc(Cc2ccccc2)[nH]1 [CF-503135]	–	9.12 µM and 13.5 µM	0.45 µM and 0.386 µM
C[C@H](NC(=O)[C@H](CC(=O)N1CCCC[C@@H]1C)NC(=O)CC1CC1)c1ncc(Cc2ccccc2)[nH]1 [CF-503136]	–	10.4 µM	0.925 µM
C[C@H](NC(=O)[C@H](CC(=O)N1CCC[C@@H]1c1ccccc1)NC(=O)CC1CC1)c1ncc(Cc2ccccc2)[nH]1 [CF-503137]	0.078 µM and 0.064 µM	12.6 µM and 10.6 µM	–
C[C@H](NC(=O)[C@H](CC(=O)N1CCCC[C@@H]1C)NC(=O)CC1CC1)c1ncc(-c2ccc(F)cc2F)[nH]1 [CF-503138]	–	11.8 µM and 10.5 µM	0.169 µM and 0.085 µM
C[C@H](NC(=O)[C@H](CC(=O)N1CCCC[C@@H]1C)NC(=O)CC1CCOCC1)c1ncc(-c2ccc(F)cc2F)[nH]1 [CF-503139]	0.089 µM and 0.148 µM	12.8 µM and 10.3 µM	–
C[C@H](NC(=O)[C@H](CC(=O)N1CCCC[C@@H]1C)NS(=O)(=O)Cc1ccccc1)c1ncc(-c2ccc(F)cc2F)[nH]1 [CF-503140]	–	6.13 µM	0.379 µM
CC(C)CS(=O)(=O)N[C@@H](CC(=O)N1CCCC[C@@H]1C)C(=O)N[C@@H](C)c1ncc(-c2ccc(F)cc2F)[nH]1 [CF-503141]	–	4.9 µM	0.368 µM
C[C@H](NC(=O)[C@H](CC(=O)N1CCCC[C@@H]1C)NS(=O)(=O)c1ccccc1)c1ncc(-c2ccc(F)cc2F)[nH]1 [CF-503142]	–	8.13 µM	0.65 µM
Cc1ccc(S(=O)(=O)N[C@@H](CC(=O)N2CCCC[C@@H]2C)C(=O)N[C@@H](C)c2ncc(-c3ccc(F)cc3F)[nH]2)cc1 [CF-503143]	0.494 µM	6.47 µM	–
CCS(=O)(=O)N[C@@H](CC(=O)N1CCCC[C@@H]1C)C(=O)N[C@@H](C)c1ncc(-c2ccc(F)cc2F)[nH]1 [CF-503144]	–	28.2 µM	1.9 µM
C[C@H](NC(=O)[C@H](CC(=O)N1CCCC[C@@H]1C)NCC(=O)c1ccccc1)c1ncc(-c2ccc(F)cc2F)[nH]1 [CF-503145]	–	15.2 µM	10 µM
C[C@H](NC(=O)[C@H](CC(=O)N1CCCC[C@@H]1C)NC(=O)C1CCC1)c1ncc(-c2ccc(F)cc2F)[nH]1 [CF-503146]	0.163 µM	2.41 µM	–
Cc1cc(C(=O)N[C@@H](CC(=O)N2CCCC[C@@H]2C)C(=O)N[C@@H](C)c2nc3ccccc3[nH]2)no1 [CF-503148]	–	17.4 µM	0.906 µM
CC(C)CCC(=O)N[C@@H](CC(=O)N1CCCC[C@@H]1C)C(=O)N[C@@H](C)c1nc2ccccc2[nH]1 [CF-503149]	–	18.9 µM and 23.5 µM	0.136 µM and 0.118 µM
CC(C)C(=O)CN[C@@H](CC(=O)N1CCCC[C@@H]1C)C(=O)N[C@@H](C)c1ncc(-c2ccc(F)cc2F)[nH]1 [CF-503151]	11.4 µM	9.9 µM	–
Cc1cc(C(=O)N[C@@H](CC(=O)N2CCC[C@@H]2c2ccccc2)C(=O)N[C@@H](C)c2nc3ccccc3[nH]2)no1 [CF-503152]	0.184 µM and 0.127 µM	11 µM and 9.7 µM	–
CC(C)CCC(=O)N[C@@H](CC(=O)N1CCC[C@@H]1c1ccccc1)C(=O)NC(C)c1nc2ccccc2[nH]1 (stereo partly drawn) [CF-503153]	–	19.8 µM	0.029 µM and 0.053 µM
CC(C)CCS(=O)(=O)N[C@@H](CC(=O)N1CCC[C@@H]1c1ccccc1)C(=O)NC(C)c1nc2ccccc2[nH]1 (stereo partly drawn) [CF-503154]	–	11.8 µM	0.116 µM and 0.202 µM
CC1CC(C(=O)N[C@@H](CC(=O)N2CCC[C@@H]2c2ccccc2)C(=O)NC(C)c2nc3ccccc3[nH]2)C1 (stereo partly drawn) [CF-503155]	0.125 µM	8.4 µM	–
C[C@H](NC(=O)[C@H](CC(=O)N1CCC[C@@H]1c1ccccc1)NC(=O)CCC(C)(C)C)c1nc2ccccc2[nH]1 [CF-503156]	–	16.6 µM	0.088 µM

Compound	IC50 (Mtb20SOG)	IC50 [1]	IC50 (Mtb20SOG; [2])
CC(C)CCS(=O)(=O)N[C@@H](CC(=O)N1CCCC[C@@H]1C)C(=O)N[C@@H](C)c1ncc(-c2ccc(F)cc2F)[nH]1 [CF-503157]	–	7.5 µM and 9.66 µM	1.07 µM and 0.691 µM
C[C@H](NC(=O)[C@H](CC(=O)N1CCCC[C@@H]1C)NC(=O)CCC(C)(C)C)c1ncc(-c2ccc(F)cc2F)[nH]1 [CF-503158]	–	5.3 µM and 8.5 µM	0.027 µM and 0.022 µM
CC(C)CCC(=O)N[C@@H](CC(=O)N1CCCC1)C(=O)N[C@@H](C)c1ncc(-c2ccc(F)cc2F)[nH]1 [CF-503159]	–	10.4 µM	3.47 µM
C[C@H](NC(=O)[C@H](CC(=O)N1CCCC1)NC(=O)CCC(C)(C)C)c1ncc(-c2ccc(F)cc2F)[nH]1 [CF-503160]	–	10.3 µM	0.796 µM
Cc1cc(C(=O)N[C@@H](CC(=O)N2CCCC2)C(=O)N[C@@H](C)c2nc(-c3ccc(F)cc3F)c[nH]2)no1 [CF-503161]	3.34 µM	16.7 µM	–
C[C@H](NC(=O)[C@H](CC(=O)N1CCC[C@@H]1C)NC(=O)CCC(C)(C)C)c1ncc(-c2ccc(F)cc2F)[nH]1 [CF-503162]	–	6.3 µM and 5.7 µM	0.173 µM and 0.128 µM
C[C@H](NC(=O)[C@H](CC(=O)N1CCC[C@@H]1C)NC(=O)CCC(C)(C)C)c1nc2ccccc2[nH]1 [CF-503163]	3.5 µM	16.5 µM	–
CC(C)CCNc1nc(C(=O)N[C@@H](C)C(=O)NCc2ccc(F)cc2F)cc(N2CCCC2)n1 [CF-503175]	–	4.59 µM and 5.46 µM	4.6 µM and 5.6 µM
CC(C)CCS(=O)(=O)N[C@@H](CC(=O)N1CCC[C@@H]1c1ccccc1)C(=O)N[C@@H](C)c1nc2ccccc2[nH]1 [CF-503183]	–	10.1 µM and 9.7 µM and 10 µM	0.224 µM and 0.242 µM and 0.124 µM
CC(C)CCS(=O)(=O)NC(CC(=O)N1CCCC1c1ccccc1)C(=O)NC(C)c1nc2ccccc2[nH]1 (stereo not drawn) [CF-503184]	2.6 µM	10.7 µM	–
C[C@H](NC(=O)N(CC(=O)N1CCCC[C@@H]1C)NC(=O)CCC(C)(C)C)c1ncc(-c2ccc(F)cc2F)[nH]1 [CF-503189]	–	7.61 µM and 10.2 µM	7.38 µM and 8.04 µM
C[C@@H](NC(=O)[C@H](CC(=O)N1CCC[C@@H]1C)NC(=O)CCC(C)(C)C)c1nc2ccccc2[nH]1 [CF-503190]	2.66 µM	17.3 µM	–
C[C@H]1CCCCN1C(=O)C[C@H](NC(=O)CCC(C)(C)C)C(=O)NCc1nc2ccccc2[nH]1 [CF-503191]	0.456 µM	10.3 µM	–
CC(C)CCC(=O)N[C@@H](CC(=O)N1CCCC[C@@H]1C)C(=O)N[C@H](C)c1nc2ccccc2[nH]1 [CF-503192]	–	15.6 µM	4.9 µM
CC(C)CCC(=O)N[C@@H](CC(=O)N1CCCC[C@@H]1C)C(=O)NCc1nc2ccccc2[nH]1 [CF-503193]	–	17.6 µM	0.647 µM
CCN(CC)C(=O)C[C@H](NC(=O)CCC(C)C)C(=O)N[C@@H](C)c1nc(-c2ccc(F)cc2F)c[nH]1 [CF-503197]	1.11 µM	7.28 µM	–
CC(C)CCC(=O)N[C@@H](CC(=O)N1CCCC[C@@H]1C)C(=O)N[C@@H](C)c1ncc(-c2ccc(F)cc2F)[nH]1 [CF-503198]	–	7.25 µM	1.57 µM
CC(C)CCC(=O)N[C@@H](CC(=O)N1CCCC[C@H]1C)C(=O)N[C@@H](C)c1nc(-c2ccc(F)cc2F)c[nH]1 [CF-503199]	1 µM	10.5 µM	–
CC(C)CCC(=O)N[C@@H](CC(=O)N(C)C(C)C)C(=O)N[C@@H](C)c1ncc(-c2ccc(F)cc2F)[nH]1 [CF-503200]	–	14.9 µM	0.919 µM
C[C@H](NC(=O)N(CC(=O)N1CCCC[C@@H]1C)NC(=O)OC(C)(C)C)C(=O)NCc1ccc(F)cc1F [CF-503201]	–	8.5 µM and > 8 µM	8.4 µM and > 8 µM
C[C@H](NC(=O)N(CC(=O)N1CCCC[C@@H]1C)NC(=O)CCC(C)(C)C)C(=O)NCc1ccc(F)cc1F [CF-503202]	–	8.5 µM and 9.12 µM	8.32 µM and 8.8 µM
C[C@H](NC(=O)[C@H](CC(=O)N1CCCC[C@@H]1C)NC(=O)CCC1CC1)c1ncc(-c2ccc(F)cc2F)[nH]1 [CF-503204]	–	11.6 µM	0.098 µM
C[C@H](NC(=O)[C@H](CC(=O)N1CCCC[C@@H]1C)NS(=O)(=O)CCC1CC1)c1ncc(-c2ccc(F)cc2F)[nH]1 [CF-503206]	–	6.16 µM	0.506 µM
CC(C)CCC(=O)N[C@@H](CC(=O)N1CCOC[C@@H]1C)C(=O)N[C@@H](C)c1nc(-c2ccc(F)cc2F)c[nH]1 [CF-503210]	0.407 µM	15.2 µM	–

Source: patent US11203613B2, “Peptidomimetic proteasome inhibitors” (CORNELL UNIVERSITY, priority 2017, dated 2021)
